This is an account of results in PMC8847198, “The Influence of AA29504 on GABAA Receptor Ligand Binding Properties and Its Implications on Subtype Selectivity” (Neurochemical Research, 2021).

Where two headings read alike, the source gives them in different places. A value given as a limit tells only on which side of the number the result lay.

Data set [1] addresses T1, recombinant α6β3 GABAARs expressed in HEK293 cells (Rattus norvegicus, UniProt P30191+P63079).
T1 construct: expressed in transfected cells; host or cells: HEK293, transient calcium phosphate transfection, pRK5 plasmids
Put plainly: GABA-independent displacement of [^3H]EBOB binding, recombinant α6β3. As to the method: (§1) Triplicate samples were incubated with shaking for 2 h. […] The incubations were terminated as described above for [^3H]muscimol binding.
(§2) GraphPad Prism software (GraphPad, San Diego, CA, USA) was used for nonlinear least squares curve-fitting and statistical testing of association, dissociation, saturation binding and radioligand displacement data. The association and dissociation curves were used for the estimation of association (Kon) and dissociation (Koff) rate constants. Saturation binding curves were used for the estimation of total number of high-affinity binding sites (Bmax), and equilibrium dissociation constants (KD). […] Statistical comparisons were made with One-way ANOVA, Two-way ANOVA or Brown-Forsythe and Welch ANOVA followed by the relevant (Tukey’s or Dunnett’s) post hoc tests for multiple comparisons. […] The study samples were not randomized and analysis was performed in a parallel unblinded mode.

The target of data set [2] is T2, recombinant α6β3δ GABAARs expressed in HEK293 cells (Rattus norvegicus, UniProt P18506+P30191+P63079).
T2 construct: expressed in transfected cells; host or cells: HEK293, transient calcium phosphate transfection, pRK5 plasmids, 1:1:1
T2 sequence (P30191 20-453): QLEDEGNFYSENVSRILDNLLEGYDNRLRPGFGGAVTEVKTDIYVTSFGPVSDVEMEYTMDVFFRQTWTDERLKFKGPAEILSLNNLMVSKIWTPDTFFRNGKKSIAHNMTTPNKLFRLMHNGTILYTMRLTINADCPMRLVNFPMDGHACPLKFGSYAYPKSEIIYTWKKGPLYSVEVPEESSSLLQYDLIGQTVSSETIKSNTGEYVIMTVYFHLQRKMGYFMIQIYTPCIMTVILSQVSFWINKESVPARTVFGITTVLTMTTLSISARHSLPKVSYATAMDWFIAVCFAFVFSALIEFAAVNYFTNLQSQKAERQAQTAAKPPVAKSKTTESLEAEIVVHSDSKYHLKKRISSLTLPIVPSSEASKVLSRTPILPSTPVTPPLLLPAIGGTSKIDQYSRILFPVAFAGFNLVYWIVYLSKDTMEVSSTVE
T2 sequence (P63079 26-473): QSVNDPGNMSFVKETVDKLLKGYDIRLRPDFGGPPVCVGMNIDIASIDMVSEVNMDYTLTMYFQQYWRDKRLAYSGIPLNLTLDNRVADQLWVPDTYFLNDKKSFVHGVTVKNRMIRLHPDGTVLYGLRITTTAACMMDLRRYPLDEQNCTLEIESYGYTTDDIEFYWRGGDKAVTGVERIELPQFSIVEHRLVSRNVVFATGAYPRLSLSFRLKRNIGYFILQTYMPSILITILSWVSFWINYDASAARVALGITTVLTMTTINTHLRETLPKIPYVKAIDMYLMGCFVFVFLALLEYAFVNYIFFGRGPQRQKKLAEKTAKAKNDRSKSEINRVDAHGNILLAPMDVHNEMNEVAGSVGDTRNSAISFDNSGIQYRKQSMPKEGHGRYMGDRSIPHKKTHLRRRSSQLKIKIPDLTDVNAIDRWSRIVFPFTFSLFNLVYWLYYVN
T2 sequence (P18506 17-449 limits assumed): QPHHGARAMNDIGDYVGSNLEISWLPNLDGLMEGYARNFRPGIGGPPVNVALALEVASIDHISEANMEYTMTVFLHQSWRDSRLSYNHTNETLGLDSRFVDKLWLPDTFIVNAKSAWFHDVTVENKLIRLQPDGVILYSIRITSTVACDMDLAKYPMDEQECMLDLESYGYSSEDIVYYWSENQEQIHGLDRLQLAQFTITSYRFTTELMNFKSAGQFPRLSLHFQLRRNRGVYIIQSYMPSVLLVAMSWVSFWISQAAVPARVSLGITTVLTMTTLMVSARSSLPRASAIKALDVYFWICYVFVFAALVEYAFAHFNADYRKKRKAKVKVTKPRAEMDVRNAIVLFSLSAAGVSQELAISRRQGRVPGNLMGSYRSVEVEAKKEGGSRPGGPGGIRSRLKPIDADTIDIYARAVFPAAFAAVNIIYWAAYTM
Briefly: GABA-independent displacement of [^3H]EBOB binding, recombinant α6β3δ. How it is done:
as §1, §2

The target in data set [3] is T3, recombinant α6β3γ2 GABAARs expressed in HEK293 cells (Rattus norvegicus, UniProt P18508+P30191+P63079).
T3 construct: expressed in transfected cells; host or cells: HEK293, transient calcium phosphate transfection, pRK5 plasmids, 1:1:1
T3 sequence (P30191 20-453): as the sequence (P30191 20-453) above
T3 sequence (P63079 26-473): as the sequence (P63079 26-473) above
T3 sequence (P18508 39-466): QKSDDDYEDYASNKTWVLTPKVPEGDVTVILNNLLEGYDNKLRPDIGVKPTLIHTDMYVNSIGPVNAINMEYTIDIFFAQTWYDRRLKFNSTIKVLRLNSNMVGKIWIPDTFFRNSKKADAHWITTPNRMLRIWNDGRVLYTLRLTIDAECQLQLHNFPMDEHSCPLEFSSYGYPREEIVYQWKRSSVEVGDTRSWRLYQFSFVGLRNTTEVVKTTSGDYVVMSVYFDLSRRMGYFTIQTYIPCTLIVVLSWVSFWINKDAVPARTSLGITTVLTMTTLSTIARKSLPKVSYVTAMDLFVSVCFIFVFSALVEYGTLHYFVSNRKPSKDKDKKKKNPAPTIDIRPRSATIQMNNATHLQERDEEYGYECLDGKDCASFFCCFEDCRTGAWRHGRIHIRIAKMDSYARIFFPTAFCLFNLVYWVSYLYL
Briefly: GABA-independent displacement of [^3H]EBOB binding, recombinant α6β3γ2. As to the method: as §1, §2

Data set [4] relates to native GABAARs expressed in WT mice forebrain membranes. Briefly: AA29504 effect on [^3H]muscimol binding, WT forebrain membranes. Further details: species or system mouse. The note with it: increasing concentrations of AA29504, 15 min, 22 °C. As to the method: (§3) WT and δKO forebrain membranes were prepared using the method of Squires and Saederup as modified by Uusi-Oukari et al.. Homogenized and washed membranes were suspended in 10 mM Tris–HCl, pH 7.4 and stored at -70 °C.

Data set [5] deals with native GABAARs expressed in δKO mice forebrain membranes. Put plainly: AA29504 effect on [^3H]muscimol binding, δKO forebrain membranes. Further details: species or system mouse. The note with it: increasing concentrations of AA29504, 15 min, 22 °C. As to the method: as §3
The test system of data set [6] is native GABAARs expressed in WT mice forebrain membranes. Put plainly: AA29504 effect on [^3H]GABA binding, WT forebrain membranes. Details: species or system mouse. The note with it: increasing concentrations of AA29504, 15 min, 22 °C. How it is done:
as §3

Data set [7] has as its system native GABAARs expressed in δKO mice forebrain membranes. Briefly: AA29504 effect on [^3H]GABA binding, δKO forebrain membranes. Details: species or system mouse. The note with it: increasing concentrations of AA29504, 15 min, 22 °C. As to the method: as §3
For data set [8], the system named is GABAARs in WT forebrain membranes. Put plainly: [^3H]muscimol association and dissociation, WT forebrain membranes. It is filed as binding, mouse. How it is done:
as §3
(§4) The effect of AA29504 on the association and dissociation of [^3H]muscimol binding was measured essentially as described by Benkherouf et al.. Saturation analysis of [^3H]muscimol was performed essentially as described by Uusi-Oukari and Korpi. Triplicate samples of the membranes were incubated in assay buffer with a concentration series of [^3H]muscimol (1–50 nM) at room temperature (22 °C) for 60 min in the absence and presence of 10 µM AA29504. […] .
(§5) GraphPad Prism software (GraphPad, San Diego, CA, USA) was used for nonlinear least squares curve-fitting and statistical testing of association, dissociation, saturation binding and radioligand displacement data. The association and dissociation curves were used for the estimation of association (Kon) and dissociation (Koff) rate constants. Saturation binding curves were used for the estimation of total number of high-affinity binding sites (Bmax), and equilibrium dissociation constants (KD). […] . Statistical comparisons were made with One-way ANOVA, Two-way ANOVA or Brown-Forsythe and Welch ANOVA followed by the relevant (Tukey’s or Dunnett’s) post hoc tests for multiple comparisons. […] . The study samples were not randomized and analysis was performed in a parallel unblinded mode.

Data set [9] deals with GABAARs in δKO forebrain membranes. Put plainly: [^3H]muscimol association and dissociation, δKO forebrain membranes. It is filed as binding, mouse. As to the method:
as §3, §4, §5

Details of data set [10]: method as in PMID 20060846, PMID 22579928, PMID 20957350. The note with it: 60 min post 2 mg/kg, s.c. in mice; cited from earlier work.
In data set [11] the target is recombinant α6β2δ GABAARs expressed in HEK293 cells (Rattus norvegicus, UniProt P18506+P30191+P63138). Briefly: AA29504 effect on [^3H]muscimol binding, recombinant α6β2δ. The note with it: HEK293, 4 concentrations of AA29504.
Sequence of recombinant α6β2δ GABAARs expressed in HEK293 cells (P30191 20-453): as the sequence (P30191 20-453) above
Sequence of recombinant α6β2δ GABAARs expressed in HEK293 cells (P63138 25-474 limits assumed): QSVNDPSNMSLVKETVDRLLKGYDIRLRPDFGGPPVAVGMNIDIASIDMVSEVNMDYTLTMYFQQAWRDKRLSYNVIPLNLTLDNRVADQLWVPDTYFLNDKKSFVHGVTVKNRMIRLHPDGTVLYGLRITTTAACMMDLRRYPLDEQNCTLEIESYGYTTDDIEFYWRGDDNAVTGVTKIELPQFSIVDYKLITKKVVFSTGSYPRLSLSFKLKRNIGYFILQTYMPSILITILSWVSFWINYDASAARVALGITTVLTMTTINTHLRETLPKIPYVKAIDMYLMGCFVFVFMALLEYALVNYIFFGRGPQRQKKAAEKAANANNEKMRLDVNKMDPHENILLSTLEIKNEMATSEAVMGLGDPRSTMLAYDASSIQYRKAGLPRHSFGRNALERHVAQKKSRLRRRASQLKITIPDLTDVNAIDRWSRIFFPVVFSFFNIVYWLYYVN
Sequence of recombinant α6β2δ GABAARs expressed in HEK293 cells (P18506 17-449 limits assumed): as the sequence (P18506 17-449 limits assumed) above
Protocol: (§6) Human embryonic kidney (HEK) 293 cells were maintained at + 37 °C/10% CO2 in Dulbecco’s Modified Eagle’s Medium (DMEM) (Gibco, Gaithersburg, MD, USA), supplemented with 3.7 g/L NaHCO3, 10% Fetal Bovine Serum (FBS) (Gibco, Gaithersburg, MD, USA), 50,000 U/L penicillin and 50 mg/L streptomycin (Sigma-Aldrich, St Louis, MO, USA). The cells were divided and plated on 10 cm culture dishes for binding assays 24 h before transfection. HEK293 cells were transfected with rat cDNAs (α1, α6, β2, β3, γ2S, δ) in pRK5 plasmids [39] under the control of cytomegalovirus (CMV) promoter using calcium phosphate transfection method essentially as described by Lüddens and Korpi [40]. The plasmids were used in 1:1 and 1:1:1 ratios for transfections containing 2 [(α6) + (β3)] or 3 [(α1 or α6) + (β2 or β3) + (γ2S or δ)] different subunits, respectively (5 μg of each plasmid DNA for a 10 cm plate). The cells were incubated at 37 °C/10% CO2 for 24 h post-transfection. Old culture medium was replaced with fresh medium and the incubation resumed for another 24 h. The cells were harvested 48 h post-transfection. […]
(§7) Individually pooled triplicate membrane samples (3 total binding and 3 non‐specific binding) were incubated with shaking for 15 min. The effect of AA29504 on binding was determined in the presence of various concentrations of AA29504. […]
The target in data set [12] is recombinant α1β2γ2 GABAARs expressed in HEK293 cells (Rattus norvegicus, UniProt P18508+P62813+P63138). Put plainly: AA29504 effect on [^3H]muscimol binding, recombinant α1β2γ2. The note with it: α1β2γ2, HEK293, 4 concentrations of AA29504.
Sequence of recombinant α1β2γ2 GABAARs expressed in HEK293 cells (P62813 28-455): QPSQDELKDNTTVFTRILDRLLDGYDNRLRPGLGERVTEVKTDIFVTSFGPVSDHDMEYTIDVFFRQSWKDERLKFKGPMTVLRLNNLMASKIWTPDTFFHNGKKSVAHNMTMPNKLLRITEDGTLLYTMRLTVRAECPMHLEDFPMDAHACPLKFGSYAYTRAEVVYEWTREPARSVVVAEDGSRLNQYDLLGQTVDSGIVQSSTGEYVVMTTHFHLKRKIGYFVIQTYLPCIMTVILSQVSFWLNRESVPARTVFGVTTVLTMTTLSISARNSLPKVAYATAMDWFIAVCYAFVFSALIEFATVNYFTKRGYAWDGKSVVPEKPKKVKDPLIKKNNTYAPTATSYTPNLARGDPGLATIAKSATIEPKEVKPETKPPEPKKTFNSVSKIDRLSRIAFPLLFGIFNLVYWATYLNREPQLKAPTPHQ
Sequence of recombinant α1β2γ2 GABAARs expressed in HEK293 cells (P63138 25-474): as the sequence (P63138 25-474 limits assumed) above
Sequence of recombinant α1β2γ2 GABAARs expressed in HEK293 cells (P18508 39-466): as the sequence (P18508 39-466) above
Protocol: as §6, §7
In data set [13] the target is recombinant α6β2γ2 GABAARs expressed in HEK293 cells (Rattus norvegicus, UniProt P18508+P30191+P63138). Put plainly: AA29504 effect on [^3H]muscimol binding, recombinant α6β2γ2. The note with it: α6β2γ2, HEK293, 4 concentrations of AA29504.
Sequence of recombinant α6β2γ2 GABAARs expressed in HEK293 cells (P30191 20-453): as the sequence (P30191 20-453) above
Sequence of recombinant α6β2γ2 GABAARs expressed in HEK293 cells (P63138 25-474 limits assumed): as the sequence (P63138 25-474 limits assumed) above
Sequence of recombinant α6β2γ2 GABAARs expressed in HEK293 cells (P18508 39-466): as the sequence (P18508 39-466) above
Protocol: as §6, §7
The subject of data set [14] is native GABAARs expressed in WT forebrain membranes. It is filed as binding, mouse. The note with it: read-out: IC50 of agonist-induced [^3H]EBOB displacement. How it is done: as §3, §1, §2
Data set [15] concerns native GABAARs expressed in δKO forebrain membranes. It is filed as binding, mouse. The note with it: read-out: IC50 of agonist-induced [^3H]EBOB displacement. As to the method: as §3, §1, §2
For data set [16], the target named is GABAARs in WT mouse forebrain membranes. Put plainly: Saturation analysis of [^3H]muscimol binding, WT forebrain membranes. How it is done:
as §3, §4, §5

Data set [17] concerns the target GABAARs in δKO mouse forebrain membranes. Put plainly: Saturation analysis of [^3H]muscimol binding, δKO forebrain membranes. The note with it: one-site model. As to the method: as §3, §4
as §5, with “The study samples were not randomized and analysis was performed in a parallel unblinded mode.” left out

Details of data set [18]: method as in PMID 31736685. The note with it: in vivo; cited from earlier work.
The mark [19] stands for this setting: 10 µM AA29504, 2 nM [^3H]muscimol, control binding without AA29504.
[20] abbreviates: 2 nM [^3H]muscimol, 22 °C, absence of AA29504.

T1 sequence (P30191 20-453): as the sequence (P30191 20-453) above
T1 sequence (P63079 26-473): as the sequence (P63079 26-473) above

As for `CCOC(=O)Nc1ccc(NCc2c(C)cc(C)cc2C)cc1N` [AA29504, [2-amino-4-(2,4,6-trimethylbenzylamino)-phenyl]-carbamic acid ethyl ester], the “concentration at which GABA-independent radioligand displacement was evident” value in [1] (α6β3, 1 nM [^3H]EBOB) is listed as at least 100 nM; in [2] (1 nM [^3H]EBOB), at least 100 nM; in data set [3] (α6β3γ2, 1 nM [^3H]EBOB), at least 300 nM. Moreover, the IC50 (as a rule, the midpoint of a concentration-inhibition curve) turned out to be 400 ± 20 nM in data set [1] (α6β3, HEK293, 1 nM [^3H]EBOB, no GABA); 1100 ± 200 nM in [2] (HEK293, 1 nM [^3H]EBOB, no GABA); 11.1 ± 1.4 µM in data set [3] (α6β3γ2, HEK293, 1 nM [^3H]EBOB, no GABA). In addition, the “effect on 2 nM [^3H]muscimol binding” value is “concentration-dependent stimulation” in data set [4]; “concentration-dependent stimulation” in data set [5]; “no significant effect” in data set [11]; “stimulated” in data set [12]; “stimulated” in data set [13]. In addition, the “effect on 5 nM [^3H]GABA binding” value in data set [6] and in [7] was “concentration-dependent stimulation” each time. For the same compound, the “maximal increased specific [^3H]muscimol binding” value was 166 ± 5 % of control in [8] (setting [19]) and 240 ± 23 % of control binding in data set [9] (setting [19]). Also, the brain concentration in data set [10] is 1 µM.
Consider `Oc1noc2c1CCNC2` [THIP, 4,5,6,7-tetrahydroisoxazolo[5,4-c]pyridin-3-ol], for which the IC50 in data set [14] was found to be 200 ± 110 µM; in [15], 220 ± 50 µM.
Regarding `[3H]C([3H])(N)c1cc(=O)[nH]o1` [[^3H]muscimol], the figures for the “association rate constant Kon” value in data set [8] (setting [20]) and in data set [9] (setting [20]) were 2.2 ± 0.3 × 10^8 M^−1 × min^−1 and 5.9 ± 0.6 × 10^8 M^−1 × min^−1, respectively. For the same compound, the “dissociation rate constant Koff” value turned out to be 0.38 ± 0.02 min⁻¹ in [8] (setting [20]) and 0.66 ± 0.03 min⁻¹ in [9] (setting [20]). For the same compound, the Kd – broadly, a measure of binding affinity in units of concentration – in [16] (with AA29504 (10 µM), 22 °C, one-site model, read-out: KD) is 23 ± 4 nM; in [16] (without AA29504, 22 °C, read-out: KD, site (1) of two-site model) it was 4.1 ± 3.6 nM; in data set [16] (without AA29504, 22 °C, read-out: KD, site (2) of two-site model (converted)), 40 nM; in [17] (with AA29504 (10 µM), 22 °C), 30 ± 3 nM; in [17] (without AA29504, 22 °C), 53 ± 6 nM.
On to `O=C(Nc1c(-c2cccs2)nc2ccccn12)c1ccc(Cl)cc1` [DS2, 4-chloro-N-[2-(2-thienyl)imidazo[1,2-a]pyridin-3-yl]benzamide], for which the brain bioavailability result in data set [18] was “limited brain bioavailability”.
